Assay results taken from patent publication US11680047B2, “Enhanced erythropoiesis and iron metabolism” (FibroGen, Inc., priority 2003, dated 2023).

Key:
EPO production = assay: Secreted EPO (ELISA) in Hep3B cells treated with IL-6; type: cell-based; conditions: 10 ng/ml IL-6, absence of compound
Protocol: Secreted EPO levels were determined using a commercially available ELISA kit (R&D Systems, catalog no. DEP00). […] As shown in FIGS. 27A and 27B, Hep3B cells treated with IL-6 increased EPO expression slightly above that in non-treated cells. Specifically, EPO levels in control cells was approximately 20 mIU/ml, while that in cells treated with 10 ng/ml IL-6 was approximately 50 mIU/ml.

Ceruloplasmin (CP) = assay: Microarray gene expression in Hep3B cells: ceruloplasmin; type: cell-based, human; conditions: 2 μM, 6 hr
Protocol: Hep3B cells (ATCC No. HB-8064) were grown in DMEM containing 8% fetal bovine serum. Hep3B cells were seeded into 6-well culture dishes at ˜500,000 cells per well. After 8 hours, the media was changed to DMEM containing 0.5% fetal bovine serum and the cells were incubated for an additional 16 hours. Compound B or compound D was added to the cells (2 μM final concentration) and the cells were incubated for various times. Control cells (no compound treatment, addition of DMSO alone) were harvested at 0, 6 and 48 hours. Harvested cells were assessed for cell viability (GUAVA), or added to RNA extraction buffer (RNeasy, Qiagen) and stored at −20° C. for subsequent RNA purification. Replicate microarrays were generated using RNA isolated from replicate experiments conducted on different days. Total RNA was isolated from cells using the RNeasy kit (Qiagen).
RNA was precipitated in 0.3 M sodium acetate (pH 5.2), 50 ng/ml glycogen, and 2.5 volumes of ethanol for one hour at −20° C. Samples were centrifuged and pellets were washed with cold 80% ethanol, dried, and resuspend in water. Double stranded cDNA was synthesized using a T7-(dT)24 first strand primer (Affymetrix, Inc., Santa Clara Calif.) and the SUPERSCRIPT CHOICE system (Invitrogen) according to the manufacturer's instructions. The final cDNA was extracted with an equal volume of 25:24:1 phenol:chloroform:isoamyl alcohol using a PHASE LOCK GEL insert (Brinkman, Inc., Westbury N.Y.). The aqueous phase was collected and cDNA was precipitated using 0.5 volumes of 7.5 M ammonium acetate and 2.5 volumes of ethanol. Alternatively, cDNA was purified using the GENECHIP sample cleanup module (Affymetrix) according to the manufacturer's instructions.
Biotin-labeled cRNA was synthesized from the cDNA in an in vitro […] (IVT) reaction using a BIOARRAY HighYield RNA transcript labeling kit (Enzo Diagnostics, Inc., Farmingdale N.Y.) according to the manufacturer's instructions. Final labeled product was purified and fragmented using the GENECHIP sample cleanup module (Affymetrix) according to the manufacturer's instructions.
Hybridization cocktail was prepared by bringing […] probe to […] in 1× hybridization buffer (100 mM MES, 1 M [Na^+], 20 mM EDTA, 0.01% Tween 20), 100 µg/ml herring sperm DNA, 500 µg/ml acetylated BSA, 0.03 nM contol oligo B2 (Affymetrix), and 1×GENECHIP eukaryotic hybridization control (Affymetrix). The cocktail was sequentially incubated at 99° C. for 5 minutes and 45° C. for 5 minutes, and then centrifuged for 5 minutes. The Human Genome U133A array (Affymetrix) was brought to room temperature and then prehybridized with 1× hybridization buffer at 45° C. for 10 minutes with rotation. The buffer was then replaced with […] hybridization cocktail and the array was hybridized for 16 hours at 45° C. at 60 rpm with counter balance. Following hybridization, arrays were washed once with 6×SSPE, 0.1% Tween 20, and then washed and stained using R-phycoerythrin-conjugated streptavidin (Molecular Probes, Eugene Oreg.), goat anti-streptavidin antibody (Vector Laboratories, Burlingame Calif.), and a GENECHIP Fluidics Station 400 instrument (Affymetrix) according to the manufacturer's micro_1v1 protocol (Affymetrix). Arrays were analyzed using a GENEARRAY scanner (Affymetrix) and Microarray Suite software (Affymetrix).
The Human Genome U133A array (Affymetrix) represents all sequences in the Human Unigene database build 133 (National Center for Biotechnology Information, Bethesda Md.), including approximately 14,500 well-characterized human genes.
RNA quality was monitored by capillary electrophoresis (Agilent Bioanalyzer). Hybridization cocktails were prepared as described (Affymetrix), and hybridized to Affymetrix human U133A arrays containing 22,283 probe sets. Array performance was analyzed with Affymetrix MicroArray Suite (MAS) software and individual probe sets were assigned “present”, “marginal, and “absent” calls according to software defaults. […]

E-selectin [1] = assay: Cell surface E-selectin (cell-based ELISA) in HUVEC pretreated with compound, then cytokines; set-up: species or system human; conditions: HUVEC pretreated 24 hours
Protocol: HUVEC were treated with vehicle control or various concentrations of compound B or compound C for 24 hours. Cells were washed and then stimulated with either 1 ng/ml TNF-α, 1 ng/ml IL-1β, or a combination of 1 ng/ml each of TNF-α, IL-1β, and IFN-γ for 4 hours. Cell surface expression of E-selectin was measured by cell-based ELISA.

E-selectin [2] = assay: IL-1β induced E-selectin expression in HUVEC; type: cell-based, human; conditions: 1 ng/ml IL-1β, 1 day
Protocol: To investigate the effect of HIF prolyl hydroxylase inhibition on IL-1β induced E-selectin expression, HUVECs were stimulated with 1 ng/ml IL-1β in the absence or presence of various concentrations of compound B or compound C for 1 day. E-selectin expression was then measured.

E-selectin [3] = assay: TNF-α induced E-selectin expression in HUVEC; type: cell-based, human; conditions: 1 ng/ml TNF-α, various concentrations, 1 day
Excerpt: (§1) Endothelial E-selectin belongs to the selectin family of cellular adhesion molecules mediating the initial attachment of leukocytes to vascular endothelial cells in inflammatory events. IL-1β, TNF-α, and lipopolysaccharides each induce the expression of E-selectin. (See, e.g., Bevilacqua et al. (1987) Proc Natl Acad Sci USA 84:9238-9242 and Bevilacqua and van Furth (1993) J Leukoc Biol 54:363-378.) To investigate the effect of HIF prolyl hydroxylase inhibition on TNF-α induced E-selectin expression, HUVECs were stimulated with 1 ng/ml TNF-α in the absence or presence of various concentrations of compound B or compound C for 1 day. E-selectin and VCAM expression were then measured.

NRAMP2 = NRAMP2 mRNA in small intestine of mice after IV administration (microarray); type: in vivo, mouse; conditions: 60 mg/kg IV, 4 hours
Protocol: In another experiment, mRNA was isolated from small intestine harvested 4 hours following IV administration of 60 mg/kg compound A, compound B, and compound C to mice. Probes were prepared from each of two animals from 5 treatment groups, and hybridized to Affymetrix mouse MOE430Aplus2 microarrays (one animal per array). Statistical comparisons of data obtained from arrays from treated versus non-treated animals was performed. […] Expression levels are shown as fold-induction over control, untreated animals for each expressed gene.

VCAM-1 [4] = assay: TNF-α induced VCAM-1 expression in HUVEC; type: cell-based, human; conditions: TNF-α 1 ng/ml, 1 day
Excerpt: Endothelial cell adhesiveness for lymphocytes occurs, in part, by endothelial cell expression of vascular cell adhesion molecule (VCAM)-1. VCAM-1 expression in endothelial cells is induced by various inflammatory cytokines, such as TNF-α. To investigate the effect of HIF prolyl hydroxylase inhibition on TNF-α induced VCAM-1 expression, HUVEC (human umbilical vein endothelial cells) were stimulated with TNF-α in the absence or presence of various concentrations of compound B or compound C for 1 day. VCAM expression was then measured.
as §1

VCAM-1 [5] = assay: IL-1β induced VCAM-1 expression in HUVEC; type: cell-based, human; conditions: IL-1β 1 ng/ml, 1 day
Protocol: To investigate the effect of HIF prolyl hydroxylase inhibition on IL-1β induced VCAM-1 expression, HUVEC (human umbilical vein endothelial cells) were stimulated with IL-1β in the absence or presence of various concentrations of compound B or compound C for 1 day. VCAM expression was then measured.

[6] = test system: erythropoietin-resistant anemia; conditions: Salvarani et al. (1996); Goch et al. (1995); cited from earlier work

IL-6: cytokine added to Hep3B cells, alone or with compound A or compound B [reference compound]
EPO levels (EPO production): approximately 50 mIU/ml

COc1ccc(CCN(CCC(=O)NO)S(=O)(=O)c2ccc(NC(=O)N(Cc3ccccc3)Cc3ccccc3)cc2)cc1 [Compound D, 3-{[4-(3,3-Dibenzyl-ureido)-benzenesulfonyl]-[2-(4-methoxy-phenyl)-ethyl]-amino}-N-hydroxy-propionamide]
Ceruloplasmin (CP) fold-increase in mRNA levels above control, first data point (Ceruloplasmin (CP)): 2.06 fold | Ceruloplasmin (CP) fold-increase in mRNA levels above control, second data point (Ceruloplasmin (CP)): 2.387 fold

O=C(O)CNC(=O)c1ncc2cc(Sc3ccccc3)ccc2c1O [C, [(4-Hydroxy-7-phenylsulfanyl-isoquinoline-3-carbonyl)-amino]-acetic acid]
induction of cell surface E-selectin expression (E-selectin [1]; then 1 ng/ml TNF-α or 1 ng/ml IL-1β for 4 hours): inhibited the induction of cell surface E-selectin expression | cell surface E-selectin expression (E-selectin [1]; then TNF-α, IL-1β and IFN-γ, 1 ng/ml each, 4 hours): decreased E-selectin expression | inhibition of IL-1β induced E-selectin expression (E-selectin [2]): dose-dependent inhibition of IL-1β induced E-selectin expression | inhibition of TNF-α induced E-selectin expression (E-selectin [3]): dose-dependent inhibition of TNF-α induced VCAM and E-selectin expression | NRAMP2 mRNA expression in small intestine (NRAMP2): increasing expression of NRAMP2 in intestine | inhibition of TNF-α induced VCAM-1 expression (VCAM-1 [4]): does-dependent inhibition of TNF-α induced VCAM-1 expression | inhibition of IL-1β induced VCAM-1 expression (VCAM-1 [5]): does-dependent inhibition of IL-1β induced VCAM-1 expression

CC(=O)N(O)CCCCCNC(=O)CCC(=O)N(O)CCCCCNC(=O)CCC(=O)N(O)CCCCCN [desferrioxamine]
efficacy in erythropoietin-resistant anemia, e.g., anemia of chronic disease [6]: some efficacy
